Columns and labels:
[1] = tested on: SSAT; experiment: Hepatic, pancreatic and renal SSAT activity in syngenic and metallothionein-SSAT mice after analogue; type: in vivo, mouse
Experimental: α-methylspermidine, Bis-α-methylspermine and α-methylspermine were administered in saline. […] The data are expressed as means ±S.D. For statistical analysis, the two-tailed Student's t test was used.

[2] = tested on: SSAT transgenic rats; experiment: Stability of the analogues in the liver of SSAT transgenic rats without or with MDL72527 (hepatic polyamine pools); type: in vivo, rat; details: for metabolic stability / conversion in the liver in vivo: without MDL72527; for conversion to α-methylspermidine in the liver: with MDL72527 50 mg/kg i.p. twice
Experimental: FIGS. 8A-8D. Hepatic polyamine pools in SSAT transgenic rats treated with methylated polyamine analogues without or with MDL72527. The rats were injected twice with MDL72527 (50 mg/kg i.p.) at 16-h interval. The polyamine analogues (25 mg/kg i.p.) were injected 2 and 8 h later. The animals were sacrificed 24 h after the last MDL72527 injection. There were three to four animals in each group. Put, putrescine; […] Spd, spermidine; Me-Spd, α-methylspermidine; […] The production of transgenic Wistar rats (UKUR30) and mice (UKU181) harboring metallothionein-SSAT fusion gene (Suppola, […]., Porter, C. W., and Jänne, J. (1999) Biochem. […] (2000) Proc. Natl. Acad. Sci. U.S.A. 97, 8290-8295; Lukkarinen, […]., and Alhonen, L. (1997) Stroke 28, 639-645). Partial hepatectomy was carried out according to the original method of Higgins and Anderson (Higgins, G. H., and Anderson, R. M. (1931) Arch. Pathol. 12, 186-202). Treatments before partial hepatectomy and the determination of DNA synthesis were carried out as in ([…]., Suppola, […]., and […]. Biol. Chem. 277, 39867-39872). Transgenic 10 weeks old male rats were injected twice with MDL72527 (50 mg/kg i.p.) at 16-h interval to inactivate PAO according to (Bolkenius, F. N., Bey, P., and Seiler, N. (1985) Biochim. Biophys. […] An aliquot of the homogenates was used for the polyamine assays. The homogenates were centrifuged (at 13 000×g, for 30 min, at 4° C.) and the supernatants were used for the enzyme activity assays. The Institutional Animal Care and Use Committee of the University of Kuopio and by the Provincial Government approved animal experiments. […] Merck (Darmstadt, Germany).

[3] = tested on: rats; experiment: Toxicity of spermine derivatives in rats (deaths); type: in vivo, rat; details: 50 mg/kg twice/24 h
Source text: It is likely to be the case with the methylated analogues as well.

[4] = Sg (syngenic) mice, 12.5 mg/kg, 24 h before sacrifice
[5] = Sg (syngenic) mice, 25 mg/kg, 24 h before sacrifice
[6] = Sg (syngenic) mice, 37.5 mg/kg, 24 h before sacrifice
[7] = Sg (syngenic) mice, 50 mg/kg, 24 h before sacrifice
[8] = Tg (transgenic) mice, 12.5 mg/kg, 24 h before sacrifice
[9] = Tg (transgenic) mice, 25 mg/kg, 24 h before sacrifice
[10] = Tg (transgenic) mice, 37.5 mg/kg, 24 h before sacrifice
[11] = Tg (transgenic) mice, 50 mg/kg, 24 h before sacrifice

CC(N)CCNCCCCN (stereo not drawn) [α-methylspermidine, 1-methylspermidine]
SSAT activity, Kidney ([1]; Sg mice, 50 mg/kg, 24 h): 4.98 pmoles/10 min/mg tissue wet weight
SSAT activity, Liver ([1]; Sg mice, 50 mg/kg, 24 h): 3.74 pmoles/10 min/mg tissue wet weight
SSAT activity, Pancreas ([1]; Sg mice, 50 mg/kg, 24 h): 6.58 pmoles/10 min/mg tissue wet weight
SSAT activity, Kidney ([1]; Sg mice, 100 mg/kg, 24 h): 4.61 pmoles/10 min/mg tissue wet weight
SSAT activity, Liver ([1]; Sg mice, 100 mg/kg, 24 h): 3.77 pmoles/10 min/mg tissue wet weight
SSAT activity, Pancreas ([1]; Sg mice, 100 mg/kg, 24 h): 7.50 pmoles/10 min/mg tissue wet weight
SSAT activity, Kidney ([1]; Sg mice, 150 mg/kg, 24 h): 5.05 pmoles/10 min/mg tissue wet weight
SSAT activity, Liver ([1]; Sg mice, 150 mg/kg, 24 h): 4.16 pmoles/10 min/mg tissue wet weight
SSAT activity, Pancreas ([1]; Sg mice, 150 mg/kg, 24 h): 6.91 pmoles/10 min/mg tissue wet weight
SSAT activity, Liver ([1]; Sg mice, 250 mg/kg, 24 h): 3.75 pmoles/10 min/mg tissue wet weight
SSAT activity, Pancreas ([1]; Sg mice, 250 mg/kg, 24 h): 12.10 pmoles/10 min/mg tissue wet weight
SSAT activity, Liver ([1]; Sg mice, 375 mg/kg, 24 h): 9.52 pmoles/10 min/mg tissue wet weight
SSAT activity, Pancreas ([1]; Sg mice, 375 mg/kg, 24 h): 18.19 pmoles/10 min/mg tissue wet weight
SSAT activity, Kidney ([1]; Sg mice, 500 mg/kg, 24 h): 14.67 pmoles/10 min/mg tissue wet weight
SSAT activity, Liver ([1]; Sg mice, 500 mg/kg, 24 h): 16.06 pmoles/10 min/mg tissue wet weight
SSAT activity, Pancreas ([1]; Sg mice, 500 mg/kg, 24 h): 26.85 pmoles/10 min/mg tissue wet weight
SSAT activity, Kidney ([1]; Tg mice, 50 mg/kg, 24 h): 3.19 pmoles/10 min/mg tissue wet weight
SSAT activity, Liver ([1]; Tg mice, 50 mg/kg, 24 h): 74.88 pmoles/10 min/mg tissue wet weight
SSAT activity, Pancreas ([1]; Tg mice, 50 mg/kg, 24 h): 179.02 pmoles/10 min/mg tissue wet weight
SSAT activity, Kidney ([1]; Tg mice, 100 mg/kg, 24 h): 3.13 pmoles/10 min/mg tissue wet weight
SSAT activity, Liver ([1]; Tg mice, 100 mg/kg, 24 h): 74.88 pmoles/10 min/mg tissue wet weight
SSAT activity, Pancreas ([1]; Tg mice, 100 mg/kg, 24 h): 226.27 pmoles/10 min/mg tissue wet weight
SSAT activity, Kidney ([1]; Tg mice, 150 mg/kg, 24 h): 3.36 pmoles/10 min/mg tissue wet weight
SSAT activity, Liver ([1]; Tg mice, 150 mg/kg, 24 h): 81.59 pmoles/10 min/mg tissue wet weight
SSAT activity, Pancreas ([1]; Tg mice, 150 mg/kg, 24 h): 183.078 pmoles/10 min/mg tissue wet weight
SSAT activity, Liver ([1]; Tg mice, 250 mg/kg, 24 h): 95.04 pmoles/10 min/mg tissue wet weight
SSAT activity, Pancreas ([1]; Tg mice, 250 mg/kg, 24 h): 188.45 pmoles/10 min/mg tissue wet weight
SSAT activity, Liver ([1]; Tg mice, 375 mg/kg, 24 h): 135.53 pmoles/10 min/mg tissue wet weight
SSAT activity, Pancreas ([1]; Tg mice, 375 mg/kg, 24 h): 133.57 pmoles/10 min/mg tissue wet weight
accumulation in the liver (tissue concentration) ([2]; 25 mg/kg i.p. twice): highest tissue concentrations
metabolic stability / conversion in the liver in vivo ([2]; 25 mg/kg i.p. twice): metabolically stable

CC(N)CCNCCCCNCCCN (stereo not drawn) [α-methylspermine, 1-methylspermine]
SSAT activity, Kidney [1, 4]: 3.65 ± 2.39 ^+ pmoles/10 min/ tissue wet weight
SSAT activity, Liver [1, 4]: 0.47 pmoles/10 min/ tissue wet weight
SSAT activity, Pancreas [1, 4]: 2.03 pmoles/10 min/ tissue wet weight
SSAT activity, Kidney [1, 5]: 2.76 ± 2.52 pmoles/10 min/ tissue wet weight
SSAT activity, Liver [1, 5]: 0.26 pmoles/10 min/ tissue wet weight
SSAT activity, Pancreas [1, 5]: 1.72 pmoles/10 min/ tissue wet weight
SSAT activity, Kidney [1, 6]: 4.29 ± 2.38 pmoles/10 min/ tissue wet weight
SSAT activity, Liver [1, 6]: 0.75 pmoles/10 min/ tissue wet weight
SSAT activity, Pancreas [1, 6]: 1.46 pmoles/10 min/ tissue wet weight
SSAT activity, Kidney [1, 7]: 3.20 ± 2.40 pmoles/10 min/ tissue wet weight
SSAT activity, Liver [1, 7]: 0.52 pmoles/10 min/ tissue wet weight
SSAT activity, Pancreas [1, 7]: 2.23 pmoles/10 min/ tissue wet weight
SSAT activity, Kidney [1, 8]: 5.86 ± 1.91 pmoles/10 min/ tissue wet weight
SSAT activity, Liver [1, 8]: 21.19 pmoles/10 min/ tissue wet weight
SSAT activity, Pancreas [1, 8]: 609.10 pmoles/10 min/ tissue wet weight
SSAT activity, Kidney [1, 9]: 3.06 ± 2.23 pmoles/10 min/ tissue wet weight
SSAT activity, Liver [1, 9]: 30.81 pmoles/10 min/ tissue wet weight
SSAT activity, Pancreas [1, 9]: 561.36 pmoles/10 min/ tissue wet weight
SSAT activity, Kidney [1, 10]: 3.47 ± 2.52 pmoles/10 min/ tissue wet weight
SSAT activity, Liver [1, 10]: 24.88 pmoles/10 min/ tissue wet weight
SSAT activity, Pancreas [1, 10]: 543.84 pmoles/10 min/ tissue wet weight
SSAT activity, Kidney [1, 11]: 2.95 ± 1.82 pmoles/10 min/ tissue wet weight
SSAT activity, Liver [1, 11]: 39.44 pmoles/10 min/ tissue wet weight
SSAT activity, Pancreas [1, 11]: 707.60 pmoles/10 min/ tissue wet weight
metabolic stability / conversion in the liver in vivo ([2]; 25 mg/kg i.p. twice): effectively converted to α-methylspermidine
conversion to α-methylspermidine in the liver [2]: markedly inhibited
deaths [3]: a number of rats died

CC(N)CCNCCCCNCCC(C)N (stereo not drawn) [bis-α-methylspermine, 1,12-dimethylspermine]
SSAT activity, Kidney [1, 4]: 0.32 ± 0.14 ^++ pmoles/10 min/ tissue wet weight
SSAT activity, Pancreas [1, 4]: 3.38 pmoles/10 min/ tissue wet weight
SSAT activity, Kidney [1, 5]: 0.58 ± 0.43 ^+ pmoles/10 min/ tissue wet weight
SSAT activity, Pancreas [1, 5]: 4.23 pmoles/10 min/ tissue wet weight
SSAT activity, Kidney [1, 6]: 0.33 ± 0.14 ^+ pmoles/10 min/ tissue wet weight
SSAT activity, Pancreas [1, 6]: 3.18 pmoles/10 min/ tissue wet weight
SSAT activity, Kidney [1, 7]: 0.60 ± 0.19 ^+ pmoles/10 min/ tissue wet weight
SSAT activity, Pancreas [1, 7]: 8.44 pmoles/10 min/ tissue wet weight
SSAT activity, Kidney [1, 8]: 0.72 ± 0.24 pmoles/10 min/ tissue wet weight
SSAT activity, Liver [1, 8]: 6.56 pmoles/10 min/ tissue wet weight
SSAT activity, Pancreas [1, 8]: 34.11 pmoles/10 min/ tissue wet weight
SSAT activity, Kidney [1, 9]: 1.48 ± 0.92 pmoles/10 min/ tissue wet weight
SSAT activity, Liver [1, 9]: 9.08 pmoles/10 min/ tissue wet weight
SSAT activity, Pancreas [1, 9]: 65.20 pmoles/10 min/ tissue wet weight
SSAT activity, Kidney [1, 10]: 8.04 ± 14.36 pmoles/10 min/ tissue wet weight
SSAT activity, Liver [1, 10]: 55.79 pmoles/10 min/ tissue wet weight
SSAT activity, Pancreas [1, 10]: 124.95 pmoles/10 min/ tissue wet weight
SSAT activity, Kidney [1, 11]: 1.24 ± 0.39 pmoles/10 min/ tissue wet weight
SSAT activity, Liver [1, 11]: 13.11 pmoles/10 min/ tissue wet weight
SSAT activity, Pancreas [1, 11]: 62.05 pmoles/10 min/ tissue wet weight
metabolic stability / conversion in the liver in vivo ([2]; 25 mg/kg i.p. twice): converted to α-methylspermidine, but less effectively than α-methylspermine
conversion to α-methylspermidine in the liver [2]: totally prevented
deaths [3]: a number of rats died
